Test results: ChEMBL document CHEMBL1201862, “PubChem BioAssay data set” (2004)
Activity calls are given as the source filed them.

What was measured:
[1] = biological target: T1, Disintegrin and metalloproteinase domain-containing protein 17 (Homo sapiens, UniProt P78536); assay: inhibition of ADAM17 substrate cleavage – biochemical, quenched FRET substrate, counter-screen for ADAM10 exosite inhibitor project, dose response (AID 743253)
[2] = potency of ADAM10 substrate cleavage blockers – biochemical, QFRET, dose response (AID 743254);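 also: ADAM10 enzyme with the DM2 quenched FRET peptide as substrate; EDANS fluorescence gain as the protease cuts the substrate; inhibitor potency against ADAM10 proteolytic activity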
[3] = alpha-synuclein stem-loop luciferase translation blockers – H4 neuroglioma cells, luminescence, confirmation (AID 1988); assay type: functional, cell-based
Streptococcus = assay: GAS UMAA2166 growth inhibition – luminescence, BacTiterGlo, counter-screen for streptokinase expression inhibitor project, dose response (AID 1915); assay type: functional, organism-based;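 also: potency for reduction of bacterial viability or growth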
[4] = Luminescence Cell-Based Dose Response HTS to Identify Inhibitors of 5'UTR Stem-Loop Driven Prion Protein mRNA Translation in H4 Neuroglioblastoma Cells. [Related pubchem assays: 1827 (Project Summary), 1813 (Primary HTS)]; assay type: functional
[5] = tested on: Streptococcus sp. 'group A'; assay: Streptococcus pyogenes SK(-)GAS viability under kanamycin – luminescence, BacTiterGlo, confirmation, counter-screen for streptokinase expression inhibitor project, dose response (AID 1900); assay type: functional, organism-based
Streptokinase A = biological target: T2, Streptokinase A (Streptococcus pyogenes serotype M1, UniProt P10520); assay: viability-normalized secreted streptokinase activity reduction – plasminogen activation absorbance, OD405, dose response (AID 1914); assay type: functional, Streptococcus pyogenes M1 GAS;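 also: secreted streptokinase activity via plasminogen activation per viability signal from cell pellet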
T2 sequence (P10520 whole entry): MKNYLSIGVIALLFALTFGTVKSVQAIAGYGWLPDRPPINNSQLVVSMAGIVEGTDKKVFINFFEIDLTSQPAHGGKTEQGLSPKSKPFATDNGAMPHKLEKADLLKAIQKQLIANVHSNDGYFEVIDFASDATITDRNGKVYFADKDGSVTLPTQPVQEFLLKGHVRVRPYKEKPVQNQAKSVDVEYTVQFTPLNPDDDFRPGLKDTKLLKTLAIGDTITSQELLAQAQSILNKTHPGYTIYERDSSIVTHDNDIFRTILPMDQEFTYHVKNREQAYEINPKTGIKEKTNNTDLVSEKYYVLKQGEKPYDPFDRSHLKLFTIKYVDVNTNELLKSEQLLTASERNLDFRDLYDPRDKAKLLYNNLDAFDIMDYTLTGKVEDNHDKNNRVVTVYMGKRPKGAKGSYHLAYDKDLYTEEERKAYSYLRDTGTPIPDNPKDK

[6] = luciferase reporter signal suppression in cells – H4 neuroglioma cells, luminescence, dose response (AID 1990); assay type: functional, cell-based
[7] = blockers of CRF-binding protein–CRF-R2 complex – cell-based, uHTS hits, 384-well, dose response (AID 651639); assay type: functional, Homo sapiens; settings: read-out: IC50_Mean
[8] = biological target: T3, Corticotropin-releasing factor receptor 2/Corticotropin-releasing factor-binding protein (Homo sapiens, UniProt P24387+Q13324); assay: Dose Response confirmation of uHTS hits for small molecule antagonists of the CRF-binding protein and CRF-R2 receptor complex.; assay type: functional; settings: read-out: IC50_Mean
T3 sequence (Q13324 whole entry): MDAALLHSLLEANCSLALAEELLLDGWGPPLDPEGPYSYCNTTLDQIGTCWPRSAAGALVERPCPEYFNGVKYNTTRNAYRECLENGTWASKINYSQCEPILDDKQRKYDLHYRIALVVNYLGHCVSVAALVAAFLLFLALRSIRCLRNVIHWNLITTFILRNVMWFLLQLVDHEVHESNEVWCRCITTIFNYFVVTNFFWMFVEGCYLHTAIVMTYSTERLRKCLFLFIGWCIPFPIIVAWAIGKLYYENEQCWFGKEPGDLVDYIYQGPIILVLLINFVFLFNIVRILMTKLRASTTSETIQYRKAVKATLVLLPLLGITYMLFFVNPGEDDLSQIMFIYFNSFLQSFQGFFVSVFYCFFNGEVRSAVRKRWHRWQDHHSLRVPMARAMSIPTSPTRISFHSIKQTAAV
T3 sequence (P24387 whole entry): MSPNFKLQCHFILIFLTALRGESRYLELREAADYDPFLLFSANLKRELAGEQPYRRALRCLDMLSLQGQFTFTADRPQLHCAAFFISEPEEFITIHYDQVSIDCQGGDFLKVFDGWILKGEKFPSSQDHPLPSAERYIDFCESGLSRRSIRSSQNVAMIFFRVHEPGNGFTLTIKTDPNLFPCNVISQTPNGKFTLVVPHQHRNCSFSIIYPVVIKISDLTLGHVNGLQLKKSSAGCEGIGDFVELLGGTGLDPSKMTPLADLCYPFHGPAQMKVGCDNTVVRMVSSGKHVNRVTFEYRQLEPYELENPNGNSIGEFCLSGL

[9] = biological target: T3, Corticotropin-releasing factor receptor 2/Corticotropin-releasing factor-binding protein; assay: activators of CRF receptor 2 with binding protein – uHTS hits, confirmation (AID 602473); assay type: functional; settings: read-out: EC50_Mean
cells [10] = assay type: functional, cell-based
[11] = biological target: T4, Nuclear receptor subfamily 0 group B member 1 (Homo sapiens, UniProt P51843); assay type: functional, cell-based;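 also: HEK293T cells transfected with SF-1 and DAX-1 plus StAR promoter luciferase reporter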
T4 sequence (P51843 whole entry): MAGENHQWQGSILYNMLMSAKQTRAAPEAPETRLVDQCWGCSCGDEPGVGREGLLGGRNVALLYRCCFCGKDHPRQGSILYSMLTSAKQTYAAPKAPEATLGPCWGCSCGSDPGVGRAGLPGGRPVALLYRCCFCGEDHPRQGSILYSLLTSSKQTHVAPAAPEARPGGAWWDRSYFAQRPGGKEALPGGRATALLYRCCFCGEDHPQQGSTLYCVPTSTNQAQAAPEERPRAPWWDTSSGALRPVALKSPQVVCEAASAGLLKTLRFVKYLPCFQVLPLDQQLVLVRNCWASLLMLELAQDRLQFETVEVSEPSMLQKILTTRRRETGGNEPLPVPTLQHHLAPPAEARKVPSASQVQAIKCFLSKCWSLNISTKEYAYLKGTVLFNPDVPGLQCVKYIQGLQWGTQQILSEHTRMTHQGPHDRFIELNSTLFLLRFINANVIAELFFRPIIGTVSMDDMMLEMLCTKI

[12] = biological target: T5, Oxysterols receptor LXR-beta (Homo sapiens, UniProt P55055); assay type: functional, cell-based;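 also: agonist activity at LXR measured by a cell-based luminescence readout across a dose range, run as a counterscreen for daf-12 agonists; HEK293 cells with Gal4-LXR fusion and GAL4-driven luciferase reporter; potency for activation of Gal4-LXR reporter so compounds are agonists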
T5 sequence (P55055 whole entry): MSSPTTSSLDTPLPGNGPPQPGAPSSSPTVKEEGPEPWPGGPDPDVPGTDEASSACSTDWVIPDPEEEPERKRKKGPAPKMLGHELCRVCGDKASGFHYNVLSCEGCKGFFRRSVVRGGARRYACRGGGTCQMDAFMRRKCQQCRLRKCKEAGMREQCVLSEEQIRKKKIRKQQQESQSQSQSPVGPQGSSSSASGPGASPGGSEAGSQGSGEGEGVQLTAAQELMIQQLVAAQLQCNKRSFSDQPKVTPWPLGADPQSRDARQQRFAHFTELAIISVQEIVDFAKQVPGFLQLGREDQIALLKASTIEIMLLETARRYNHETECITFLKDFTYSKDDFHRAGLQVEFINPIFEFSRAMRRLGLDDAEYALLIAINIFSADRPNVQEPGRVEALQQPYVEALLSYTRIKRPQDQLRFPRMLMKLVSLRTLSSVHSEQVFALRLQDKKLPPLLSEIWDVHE

Caspase-6 = biological target: T6, Caspase-6 (Homo sapiens, UniProt P55212); assay: inhibition of CASP6 peptide cleavage – biochemical, VEID-R110 fluorescence, cherry-pick, dose response (AID 720632)
T6 sequence (P55212 whole entry): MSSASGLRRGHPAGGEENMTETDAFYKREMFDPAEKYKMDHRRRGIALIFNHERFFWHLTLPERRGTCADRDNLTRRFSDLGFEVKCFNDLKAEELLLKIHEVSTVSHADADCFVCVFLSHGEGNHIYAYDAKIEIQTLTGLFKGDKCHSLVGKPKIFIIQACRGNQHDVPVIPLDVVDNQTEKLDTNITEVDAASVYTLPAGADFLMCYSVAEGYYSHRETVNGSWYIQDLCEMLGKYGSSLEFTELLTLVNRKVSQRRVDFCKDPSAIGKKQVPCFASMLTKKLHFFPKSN

[13] = nonselective StAR promoter luciferase inhibitors – cell-based, luminescence, luciferase reporter, counter-screen for LRH-1 inverse agonist project, dose response (AID 651969); assay type: functional
[14] = biological target: Nuclear receptor subfamily 5 group A member 2 (Homo sapiens, UniProt O00482); assay type: functional, cell-based;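 also: HEK293T cells transfected with LRH-1 and a StAR promoter luciferase reporter; potency for inhibitors that lower LRH-1 driven reporter light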
Sequence of Nuclear receptor subfamily 5 group A member 2 (O00482 whole entry): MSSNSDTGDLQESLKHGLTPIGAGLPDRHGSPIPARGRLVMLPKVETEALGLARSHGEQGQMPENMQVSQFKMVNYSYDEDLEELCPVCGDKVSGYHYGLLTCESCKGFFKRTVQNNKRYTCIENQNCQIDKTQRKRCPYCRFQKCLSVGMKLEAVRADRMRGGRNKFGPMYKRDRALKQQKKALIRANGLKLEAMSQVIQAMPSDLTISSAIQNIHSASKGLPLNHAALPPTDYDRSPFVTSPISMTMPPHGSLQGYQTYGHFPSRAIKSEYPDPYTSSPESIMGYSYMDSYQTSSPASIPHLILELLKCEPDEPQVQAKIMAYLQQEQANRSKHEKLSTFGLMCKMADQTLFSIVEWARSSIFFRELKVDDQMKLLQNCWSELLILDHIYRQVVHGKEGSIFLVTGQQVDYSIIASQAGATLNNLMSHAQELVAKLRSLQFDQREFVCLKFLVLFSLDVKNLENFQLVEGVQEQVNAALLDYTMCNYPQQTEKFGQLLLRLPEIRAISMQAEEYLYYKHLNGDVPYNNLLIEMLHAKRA

Steroidogenic factor 1 = Steroidogenic factor 1 (Homo sapiens, UniProt Q13285); assay: Counterscreen for inverse agonists of the liver receptor homolog-1 (LRH-1; NR5A2): Luminescence-based cell-based high throughput dose response assay to identify inverse agonists of the Steroidogenic Factor 1 Nuclear Receptor (SF1; NR5A1).; assay type: functional
Sequence of Steroidogenic factor 1 (Q13285 whole entry, the tested form may be a part): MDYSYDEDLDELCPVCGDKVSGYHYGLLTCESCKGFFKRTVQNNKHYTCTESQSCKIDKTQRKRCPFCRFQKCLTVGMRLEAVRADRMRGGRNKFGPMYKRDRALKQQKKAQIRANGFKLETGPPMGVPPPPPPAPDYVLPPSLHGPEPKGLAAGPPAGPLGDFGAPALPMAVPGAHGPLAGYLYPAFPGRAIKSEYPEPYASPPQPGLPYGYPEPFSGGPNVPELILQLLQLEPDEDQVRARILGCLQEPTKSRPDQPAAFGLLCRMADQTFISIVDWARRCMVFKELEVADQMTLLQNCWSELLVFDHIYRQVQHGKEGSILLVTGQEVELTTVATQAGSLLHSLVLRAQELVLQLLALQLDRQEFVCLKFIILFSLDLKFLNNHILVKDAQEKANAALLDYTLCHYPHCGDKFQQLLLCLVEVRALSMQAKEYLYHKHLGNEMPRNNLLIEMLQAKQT

[15] = biological target: T1, Disintegrin and metalloproteinase domain-containing protein 17; assay: exosite inhibitors of ADAM17, dose response, biochemical (AID 743260)
[16] = biological target: T7, Adenosylmethionine-8-amino-7-oxononanoate aminotransferase (Mycobacterium tuberculosis, UniProt P9WQ81); assay: Mycobacterium tuberculosis BioA enzyme inhibitor Measured in Biochemical System Using Plate Reader - 2163-02_Inhibitor_Dose_CherryPick_Activity.; assay type: functional, Mycobacterium tuberculosis UT205
T7 sequence (P9WQ81 whole entry): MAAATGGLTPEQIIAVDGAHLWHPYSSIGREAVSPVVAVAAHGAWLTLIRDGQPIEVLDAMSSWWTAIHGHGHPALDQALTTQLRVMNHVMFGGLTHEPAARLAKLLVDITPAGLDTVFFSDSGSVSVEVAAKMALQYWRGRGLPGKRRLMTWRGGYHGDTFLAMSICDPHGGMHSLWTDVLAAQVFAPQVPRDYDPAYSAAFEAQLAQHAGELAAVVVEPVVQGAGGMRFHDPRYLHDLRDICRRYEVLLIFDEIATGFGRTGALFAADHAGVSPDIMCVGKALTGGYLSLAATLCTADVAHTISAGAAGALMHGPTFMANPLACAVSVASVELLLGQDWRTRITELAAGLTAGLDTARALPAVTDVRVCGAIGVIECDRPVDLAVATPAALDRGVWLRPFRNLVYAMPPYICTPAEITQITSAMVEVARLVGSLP

cells [17] = assay type: functional, cell-based; remark: listed apart in the source
cells [18] = assay type: functional, cell-based; remark: listed apart in the source
[19] = inhibition of ADAM10 peptide cleavage – biochemical, FRET peptide substrate, recombinant human ADAM10, selectivity assay for ADAM17 exosite inhibitor project, dose response (AID 743259);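 also: ADAM10 enzyme cleaving a FRET peptide substrate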

T1 sequence (P78536 whole entry, the tested form may be a part): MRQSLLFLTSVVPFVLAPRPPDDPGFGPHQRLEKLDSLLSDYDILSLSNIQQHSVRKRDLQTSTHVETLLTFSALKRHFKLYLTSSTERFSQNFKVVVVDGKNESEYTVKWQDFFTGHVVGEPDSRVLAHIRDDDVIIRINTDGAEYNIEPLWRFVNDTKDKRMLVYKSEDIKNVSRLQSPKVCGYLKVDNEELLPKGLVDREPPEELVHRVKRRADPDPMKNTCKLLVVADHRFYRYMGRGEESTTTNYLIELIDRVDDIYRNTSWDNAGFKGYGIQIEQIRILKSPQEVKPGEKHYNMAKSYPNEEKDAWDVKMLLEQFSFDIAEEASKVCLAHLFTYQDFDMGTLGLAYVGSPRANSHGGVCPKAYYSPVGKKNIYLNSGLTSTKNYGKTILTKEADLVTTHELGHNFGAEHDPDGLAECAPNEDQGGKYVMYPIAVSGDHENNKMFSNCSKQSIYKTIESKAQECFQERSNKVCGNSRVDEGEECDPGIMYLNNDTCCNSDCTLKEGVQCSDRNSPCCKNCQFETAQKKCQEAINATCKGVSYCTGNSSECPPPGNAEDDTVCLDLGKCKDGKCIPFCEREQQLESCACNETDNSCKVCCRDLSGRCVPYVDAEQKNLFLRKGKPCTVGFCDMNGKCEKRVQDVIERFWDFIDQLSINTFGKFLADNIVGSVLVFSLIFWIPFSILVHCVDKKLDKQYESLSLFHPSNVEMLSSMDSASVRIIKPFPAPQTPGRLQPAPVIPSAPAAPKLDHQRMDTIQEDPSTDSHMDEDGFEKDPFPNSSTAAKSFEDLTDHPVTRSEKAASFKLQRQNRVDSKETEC

Cn1cc(C(=O)c2ccc(Cl)cc2Cl)cc1C(=O)NN=C(N)COc1ccc(Cl)cc1Cl
IC50 [1]: > 69.5 µM (inactive) | IC50 [2]: > 69.5 µM (inactive) | EC50 [3]: 9.69 µM (active) | EC50 (Streptococcus): 43.9 µM (active) | EC50 [4]: 24.3 µM (active) | EC50 [5]: 927 nM (active) | EC50 (Streptokinase A): > 150 µM (not active) | EC50 [6]: > 120 µM (not active)

CCN(CC)C1Oc2cc3c(cc2C(c2cccc(OC)c2O)C1C)OCO3 (stereo not given)
IC50 [7]: 5.28 µM (active) | IC50 [8]: 2.99 µM (active) | EC50 [9]: > 53 µM (inactive)

Cc1cc(C(=O)CSc2nnc(N)s2)c(C)n1C1CC1
IC50 (cells [10]): > 67.6 µM (inactive) | IC50 [11]: > 67.6 µM (inactive)

COc1ccc(C(=O)Nc2cc(=O)n(C)c(=O)n2C)cc1
IC50 [7]: > 20 µM (inactive) | IC50 [8]: < 0.368 µM (active) | EC50 [9]: > 53 µM (inactive)

CC1CCc2c(sc(NC(=O)C3=COCCO3)c2C(N)=O)C1 (stereo not given)
EC50 [12]: > 67.5 µM (inactive)

NC(=O)c1c(NC(=O)C2CC=CCC2C(=O)O)sc2c1CCCCC2 (stereo not given)
AC50 (Caspase-6): 5.79 µM (active)

Cc1ccsc1C(=O)OCC(=O)c1cc(C)n(C)c1C
IC50 (cells [10]): > 67.6 µM (inactive) | IC50 [11]: > 0.278 µM (active)

CCOc1ccc(Cl)cc1S(=O)(=O)n1nnc2ccccc21
IC50 [7]: 2.16 µM (active) | IC50 [8]: 3.56 µM (active) | EC50 [9]: > 53 µM (inactive)

CC1CCC2(CC1)NC(=O)N(CC(=O)Nc1ccc3c(c1)OCCCO3)C2=O (stereo not given)
IC50 [13]: 35.9 µM (inactive) | IC50 [14]: 6.2 µM (active) | IC50 (Steroidogenic factor 1): 1.02 µM (active)

CC(=O)c1cccc(NC(=O)C(OC(=O)c2ccccc2NS(=O)(=O)c2cccs2)c2ccccc2)c1 (stereo not given)
IC50 [1]: > 69.5 µM (inactive) | IC50 [2]: > 69.5 µM (inactive) | IC50 [15]: > 69.5 µM (inactive)

CN(Cc1ccccc1)C(=O)CCS(=O)(=O)c1ccc2c(c1)NC(=O)CS2
AC50 [16]: 3.51 µM (active)

COc1ccccc1NC(=O)CN1CCN(CC(=O)Nc2ccc3c(c2)OCCO3)CC1
IC50 [13]: 35.9 µM (inactive) | IC50 [14]: 4.02 µM (active) | IC50 (Steroidogenic factor 1): 0.985 µM (active)

O=C(Nc1ccc(N2CCOCC2)c(Cl)c1)c1cccnc1
AC50 [16]: 13.3 µM (active)

Cc1ccc(NC(=O)c2cc3c(s2)CCCC3)cc1S(=O)(=O)Nc1ccccc1Cl
IC50 [1]: > 69.5 µM (inactive) | IC50 [2]: > 69.5 µM (inactive)

O=C(Cc1nnc(O)nc1O)N/N=C/c1ccccc1O
EC50 (cells [17]): > 29.9 µM (inactive) | IC50 (cells [18]): > 29.9 µM (inactive)

CNC(=O)C1CC(=O)N=C(N/N=C(\C)c2cccs2)S1 (stereo not given)
IC50 [19]: > 23.2 µM (inactive) | IC50 [15]: > 69.5 µM (inactive)

CCOc1ccc(OCCC(=O)OCC(=O)Nc2ccc3c(c2)OCCO3)cc1
IC50 [13]: 35.9 µM (inactive) | IC50 [14]: 35.9 µM (inactive) | IC50 (Steroidogenic factor 1): 12.7 µM (inactive)

c1csc(-c2nnc(-c3ccc(N4CCOCC4)cc3)o2)c1
EC50 [12]: > 67.5 µM (inactive)

c1ccc(Nc2nc(-c3cccnc3)cs2)nc1
EC50 [12]: > 67.6 µM (inactive)
